According to paper PMC11149885 (PLOS ONE, 2024):
“And” between values parts separate entries of the source, which are not always exact repeats. Equal entries are not always repeated.

Assays:
[1] = test system: VEGF-induced angiogenesis on the CAM; test: Gelatin sponge chick chorioallantoic membrane (CAM) assay; details: for Angiogenesis - Vessel thickness score, Mean: score 0-3; for Angiogenesis - Vessel thickness score, individual egg: score 0-3, one value per egg
VEGFR1 [2] = target: T1, VEGFR1 (Homo sapiens, UniProt P17948); test: Ten-dose IC50 measurement; details: 10μM ATP
FGFR1 = target: T2, FGFR1 (Homo sapiens, UniProt P11362); test: HotSpot kinase screen; assay type: biochemical; details: 10μM ATP
T2 construct: purchased Reaction Biology Corporation (contract assay)

TIE2 [3] = target: T3, TIE2 (Homo sapiens, UniProt Q02763); test: HotSpot kinase screen; assay type: biochemical; set-up: purchased Reaction Biology Corporation (contract assay); details: 1uM TKI, 10μM ATP
PDGFRβ = target: T4, PDGFRβ (Homo sapiens, UniProt P09619); test: HotSpot kinase screen; assay type: biochemical; details: 10μM ATP
T4 construct: purchased Reaction Biology Corporation (contract assay)

[4] = test system: VEGF-A–induced sprouting of HUVECs; test: HUVEC spheroid sprouting assay; assay type: cell-based, human; details: for cumulative sprout length per spheroid (CSL), mean: 25 ng/mL VEGF-165, 24 hours
Protocol: The three TKI compounds were tested by Reaction Biology Europe (Freiburg, Germany) in the spheroid-based cellular angiogenesis assay to determine their effect on VEGF-A–induced sprouting of HUVECs. Primary HUVECs from pooled donors at passage 3 to 4 (PromoCell, Heidelberg, Germany) were grown in endothelial cell growth and basal medium (ECGM/ECBM, PromoCell). Test compounds were prepared as 100-fold concentrated stock solutions in DMSO and pre-diluted in basal medium. HUVECs were stimulated using 25 ng/mL VEGF-165 (Reaction Biology Europe, Freiburg, Germany) pre-diluted in basal medium.
Spheroids were prepared as described by pipetting 400 HUVECs in a hanging drop on plastic dishes to allow overnight spheroid aggregation. Fifty HUVEC spheroids were seeded in 0.9 mL of a collagen gel and pipetted into individual wells of a 24-well plate to allow polymerization. Test compounds and VEGF-165 were added after 30 minutes by pipetting 100 μL of a ten-fold concentrated solution onto the polymerized gel. Plates were incubated at 37°C for 24 hours, and cells were fixed by adding 4% paraformaldehyde (Roth, Karlsruhe, Germany). Sprouting intensity of HUVEC spheroids treated with the test samples was quantitated using an image analysis system to determine the cumulative sprout length (CSL) per spheroid. Images of single spheroids were captured using an inverted microscope and the digital imaging software NIS-Elements BR 3.0 (Nikon). Spheroid pictures were uploaded to Wimasis (www.wimasis.com) for image analysis. The CSL of each spheroid was determined using the imaging analysis tool WimSprout. The mean CSL of ten randomly selected spheroids was analyzed as an individual data point.

TIE2 [5] = target: T3, TIE2; test: Ten-dose IC50 measurement; details: 10μM ATP
FGFR2 = target: T5, FGFR2 (Homo sapiens, UniProt P21802); test: HotSpot kinase screen; assay type: biochemical; details: 10μM ATP
T5 construct: purchased Reaction Biology Corporation (contract assay)
Protocol: (§1) Measurement of kinase activity was performed by Reaction Biology Corporation (Reaction Biology Corporation, Malvern, PA), using the HotSpot™ assay. The screen focused on RTKs reported in the literature to play a major role in the regulation of angiogenesis (VEGFR1, VEGFR2, and VEGFR3; fibroblast growth factor receptor [FGFR] 1, 2, and 3; and platelet-derived growth factor receptor beta [PDGFRβ]) as well as an RTK essential for maintaining blood vessel stability (TIE2). For the profiling, specific kinase/substrate pairs and required cofactors were prepared in a reaction buffer (20mM Hepes [pH 7.5], 10mM MgCl2, 1mM EGTA, 0.02% Brij35, 0.02 mg/mL BSA, 0.1mM Na3VO4, 2mM DTT, 1% dimethyl sulfoxide [DMSO]). TKI compounds were diluted to 10μM and 1μM concentrations for the screens and after addition to the reaction buffer incubated for 20 minutes, followed by the addition of a mixture of ATP (Sigma, St. Louis, MO) and ^33P-ATP (Perkin Elmer, Waltham, MA) to a final ATP concentration of 10μM. Reactions were carried out at room temperature for 2 hours, followed by spotting of the reactions onto P81 ion exchange filter paper (Whatman Inc., Piscataway, NJ). Unbound phosphate was removed by extensive washing of the filters. […] Kinome TREEspot images representing levels of inhibition were prepared using Kinome Mapper (https://www.reactionbiology.com/resources/tools/kinase-mapper).

VEGFR3 [6] = target: T6, VEGFR3 (Homo sapiens, UniProt P35916); test: HotSpot kinase screen; assay type: biochemical; details: 10μM ATP
T6 construct: purchased Millipore Corporation (Dundee, Scotland) or Reaction Biology Corporation (contract assay)
Protocol: as §1

VEGFR3 [7] = target: T6, VEGFR3; test: Ten-dose IC50 measurement; assay type: biochemical; details: 10μM ATP
FGFR3 = target: T7, FGFR3 (Homo sapiens, UniProt P22607); test: HotSpot kinase screen; assay type: biochemical; details: 1uM TKI, 10μM ATP
T7 construct: purchased Reaction Biology Corporation (contract assay)

VEGFR1 [8] = target: T1, VEGFR1; test: HotSpot kinase screen; assay type: biochemical; set-up: purchased Millipore Corporation (Dundee, Scotland) or Reaction Biology Corporation (contract assay); details: 10μM ATP
Protocol: as §1

[9] = synthetic melanin, 0.06 to 25.0μM, 37°C, 1 hour, ± SEM
[10] = 0.5 mg/kg bevacizumab (20.15μM)

T3 sequence (Q02763 23-1124): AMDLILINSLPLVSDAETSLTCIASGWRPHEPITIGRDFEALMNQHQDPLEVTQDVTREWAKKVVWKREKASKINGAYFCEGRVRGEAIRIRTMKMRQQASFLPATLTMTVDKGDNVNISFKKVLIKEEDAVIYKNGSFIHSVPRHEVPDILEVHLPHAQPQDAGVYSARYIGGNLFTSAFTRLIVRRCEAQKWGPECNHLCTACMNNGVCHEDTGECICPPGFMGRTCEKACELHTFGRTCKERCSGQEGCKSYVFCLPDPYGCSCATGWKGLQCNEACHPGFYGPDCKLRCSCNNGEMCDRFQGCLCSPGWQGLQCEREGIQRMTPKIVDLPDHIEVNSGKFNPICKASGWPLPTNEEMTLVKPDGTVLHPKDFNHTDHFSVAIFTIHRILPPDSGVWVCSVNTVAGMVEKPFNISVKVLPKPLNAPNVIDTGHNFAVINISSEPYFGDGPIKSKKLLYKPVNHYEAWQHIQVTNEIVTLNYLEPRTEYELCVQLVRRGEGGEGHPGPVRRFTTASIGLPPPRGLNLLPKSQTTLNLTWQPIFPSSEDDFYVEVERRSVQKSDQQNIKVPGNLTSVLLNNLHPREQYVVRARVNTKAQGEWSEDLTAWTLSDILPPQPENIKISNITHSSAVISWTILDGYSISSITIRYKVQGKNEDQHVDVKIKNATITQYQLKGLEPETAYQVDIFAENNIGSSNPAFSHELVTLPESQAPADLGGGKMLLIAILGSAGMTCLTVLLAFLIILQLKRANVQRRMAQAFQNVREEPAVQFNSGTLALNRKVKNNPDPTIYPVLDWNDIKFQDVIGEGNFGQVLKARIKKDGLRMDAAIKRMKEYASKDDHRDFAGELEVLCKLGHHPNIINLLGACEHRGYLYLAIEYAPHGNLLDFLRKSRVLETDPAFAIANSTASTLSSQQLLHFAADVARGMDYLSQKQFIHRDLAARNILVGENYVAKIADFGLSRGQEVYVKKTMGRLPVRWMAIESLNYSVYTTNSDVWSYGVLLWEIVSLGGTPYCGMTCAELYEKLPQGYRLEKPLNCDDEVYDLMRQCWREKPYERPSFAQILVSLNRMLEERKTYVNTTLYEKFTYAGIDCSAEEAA
T1 sequence (P17948 27-1338): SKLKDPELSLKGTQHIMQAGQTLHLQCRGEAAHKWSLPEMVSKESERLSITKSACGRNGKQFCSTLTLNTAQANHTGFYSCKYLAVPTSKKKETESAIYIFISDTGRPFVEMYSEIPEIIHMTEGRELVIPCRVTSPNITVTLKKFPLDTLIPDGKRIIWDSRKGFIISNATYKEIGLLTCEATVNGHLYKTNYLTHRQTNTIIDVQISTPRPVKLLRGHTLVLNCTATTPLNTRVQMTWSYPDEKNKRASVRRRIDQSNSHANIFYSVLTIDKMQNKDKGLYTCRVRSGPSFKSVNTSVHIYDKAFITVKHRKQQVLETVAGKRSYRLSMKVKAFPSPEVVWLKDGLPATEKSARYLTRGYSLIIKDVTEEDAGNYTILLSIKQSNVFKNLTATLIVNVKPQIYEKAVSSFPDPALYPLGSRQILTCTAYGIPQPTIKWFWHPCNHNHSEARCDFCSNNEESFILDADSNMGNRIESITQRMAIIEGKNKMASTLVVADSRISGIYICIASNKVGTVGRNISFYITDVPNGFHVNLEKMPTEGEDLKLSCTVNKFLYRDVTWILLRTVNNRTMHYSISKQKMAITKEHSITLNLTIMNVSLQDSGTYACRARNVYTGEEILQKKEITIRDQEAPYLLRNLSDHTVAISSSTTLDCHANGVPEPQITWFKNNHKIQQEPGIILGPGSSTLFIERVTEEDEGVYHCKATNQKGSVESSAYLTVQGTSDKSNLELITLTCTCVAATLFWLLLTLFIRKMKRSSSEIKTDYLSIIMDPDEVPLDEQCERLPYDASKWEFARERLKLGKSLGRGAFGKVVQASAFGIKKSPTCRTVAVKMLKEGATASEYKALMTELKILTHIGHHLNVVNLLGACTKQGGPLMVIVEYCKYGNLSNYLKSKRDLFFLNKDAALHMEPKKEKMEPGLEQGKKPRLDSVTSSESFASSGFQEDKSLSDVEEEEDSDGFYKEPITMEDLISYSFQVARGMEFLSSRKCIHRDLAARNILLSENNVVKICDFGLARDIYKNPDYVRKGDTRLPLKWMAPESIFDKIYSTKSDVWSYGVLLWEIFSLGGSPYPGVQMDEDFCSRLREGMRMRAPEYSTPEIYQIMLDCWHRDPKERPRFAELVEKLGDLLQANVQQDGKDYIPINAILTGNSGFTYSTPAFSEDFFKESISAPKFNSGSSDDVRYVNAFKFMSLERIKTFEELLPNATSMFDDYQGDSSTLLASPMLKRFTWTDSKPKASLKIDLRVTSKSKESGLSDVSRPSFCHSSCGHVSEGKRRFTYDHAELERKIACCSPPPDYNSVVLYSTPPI
T6 sequence (P35916 25-1363): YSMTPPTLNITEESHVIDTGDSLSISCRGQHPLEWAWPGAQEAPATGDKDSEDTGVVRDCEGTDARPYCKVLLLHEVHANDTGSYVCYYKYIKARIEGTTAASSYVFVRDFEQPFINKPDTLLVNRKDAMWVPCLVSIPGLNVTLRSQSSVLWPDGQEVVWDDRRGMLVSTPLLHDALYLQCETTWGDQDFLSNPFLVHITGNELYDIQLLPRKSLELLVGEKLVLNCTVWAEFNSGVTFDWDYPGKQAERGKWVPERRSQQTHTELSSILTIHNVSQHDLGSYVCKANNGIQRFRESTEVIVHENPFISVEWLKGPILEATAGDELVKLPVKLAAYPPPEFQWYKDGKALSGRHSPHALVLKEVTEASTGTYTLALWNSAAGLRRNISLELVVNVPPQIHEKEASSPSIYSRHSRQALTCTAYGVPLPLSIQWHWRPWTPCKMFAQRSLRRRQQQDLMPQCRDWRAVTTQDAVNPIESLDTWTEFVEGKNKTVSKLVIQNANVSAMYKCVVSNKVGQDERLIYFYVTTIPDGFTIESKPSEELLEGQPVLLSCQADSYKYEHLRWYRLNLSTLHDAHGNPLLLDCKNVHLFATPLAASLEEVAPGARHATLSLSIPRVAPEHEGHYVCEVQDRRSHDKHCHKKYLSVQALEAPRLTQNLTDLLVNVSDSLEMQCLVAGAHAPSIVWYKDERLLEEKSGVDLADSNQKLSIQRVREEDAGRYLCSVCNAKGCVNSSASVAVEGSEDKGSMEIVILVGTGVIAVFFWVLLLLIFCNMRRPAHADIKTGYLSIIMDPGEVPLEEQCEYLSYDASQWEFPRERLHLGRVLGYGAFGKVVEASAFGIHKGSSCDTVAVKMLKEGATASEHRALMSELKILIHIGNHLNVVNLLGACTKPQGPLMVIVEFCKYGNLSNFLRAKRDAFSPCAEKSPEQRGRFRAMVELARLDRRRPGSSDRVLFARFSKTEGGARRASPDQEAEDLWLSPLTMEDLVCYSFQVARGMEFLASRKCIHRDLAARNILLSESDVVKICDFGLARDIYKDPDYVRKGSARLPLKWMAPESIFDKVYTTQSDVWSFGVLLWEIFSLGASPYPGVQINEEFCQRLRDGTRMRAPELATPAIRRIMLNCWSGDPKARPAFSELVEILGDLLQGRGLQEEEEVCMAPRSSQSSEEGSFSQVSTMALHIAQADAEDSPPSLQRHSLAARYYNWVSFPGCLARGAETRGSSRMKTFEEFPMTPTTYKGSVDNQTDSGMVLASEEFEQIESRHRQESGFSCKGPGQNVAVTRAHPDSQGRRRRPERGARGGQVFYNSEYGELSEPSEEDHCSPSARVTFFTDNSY
T4 sequence (P09619 33-1106): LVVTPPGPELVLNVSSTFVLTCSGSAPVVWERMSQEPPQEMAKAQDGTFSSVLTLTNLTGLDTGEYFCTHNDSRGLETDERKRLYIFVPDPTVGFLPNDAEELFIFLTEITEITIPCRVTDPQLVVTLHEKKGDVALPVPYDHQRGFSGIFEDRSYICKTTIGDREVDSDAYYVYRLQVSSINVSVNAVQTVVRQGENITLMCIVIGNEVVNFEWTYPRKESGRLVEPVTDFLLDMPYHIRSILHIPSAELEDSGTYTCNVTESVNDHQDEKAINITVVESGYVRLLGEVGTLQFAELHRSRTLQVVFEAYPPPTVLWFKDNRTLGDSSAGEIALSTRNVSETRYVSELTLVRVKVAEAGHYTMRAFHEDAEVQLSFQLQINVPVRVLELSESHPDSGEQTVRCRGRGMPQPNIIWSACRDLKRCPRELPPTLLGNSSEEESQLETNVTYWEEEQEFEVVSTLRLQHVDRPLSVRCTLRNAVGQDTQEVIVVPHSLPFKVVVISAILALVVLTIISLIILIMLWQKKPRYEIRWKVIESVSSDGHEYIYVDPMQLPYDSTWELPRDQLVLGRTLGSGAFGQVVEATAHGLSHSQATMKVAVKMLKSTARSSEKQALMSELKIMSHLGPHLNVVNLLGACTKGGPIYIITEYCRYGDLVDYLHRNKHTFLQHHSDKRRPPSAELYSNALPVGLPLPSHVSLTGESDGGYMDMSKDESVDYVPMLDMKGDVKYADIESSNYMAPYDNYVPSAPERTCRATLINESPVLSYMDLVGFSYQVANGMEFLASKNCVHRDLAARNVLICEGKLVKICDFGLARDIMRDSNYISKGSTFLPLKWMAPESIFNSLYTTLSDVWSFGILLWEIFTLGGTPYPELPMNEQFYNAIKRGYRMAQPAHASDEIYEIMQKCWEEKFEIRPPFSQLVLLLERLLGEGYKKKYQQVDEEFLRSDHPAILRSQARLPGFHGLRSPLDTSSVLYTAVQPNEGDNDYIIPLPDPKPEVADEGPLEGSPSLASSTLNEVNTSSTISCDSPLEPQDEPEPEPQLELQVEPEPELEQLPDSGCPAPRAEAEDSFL

Bevacizumab: known anti-VEGF antibody, reference compound (positive control) in the CAM assay
Angiogenesis - Vessel number, Mean [1, 10]: 11.4 | Angiogenesis - Vessel number, individual egg ([1]; 0.5 mg/kg bevacizumab (20.15μM), one value per egg): 9.33 and 9.67 | vessel reduction compared to the negative control ([1]; 0.5 mg/kg bevacizumab (20.15μM), p = 0.05): 18% | Angiogenesis - Vessel thickness score, Mean [1, 10]: 0.8 | Angiogenesis - Vessel thickness score, individual egg [1, 10]: 1.33 and 0.33 and 1.67 and 0 and 1

CCN(CC)CCNC(=O)c1c(C)[nH]c(/C=C2\C(=O)Nc3ccc(F)cc32)c1C [Sunitinib]
%Activity VEGFR1 (VEGFR1 [2]; 1.00E-05 M TKI): 2.53% | %Activity VEGFR1 (VEGFR1 [2]; 1.11E-06 M TKI): 20.58% | %Activity VEGFR1 (VEGFR1 [2]; 1.37E-08 M TKI): 78.18% | %Activity VEGFR1 (VEGFR1 [2]; 1.52E-09 M TKI): 84.25% | %Activity VEGFR1 (VEGFR1 [2]; 3.33E-06 M TKI): 8.53% | %Activity VEGFR1 (VEGFR1 [2]; 3.70E-07 M TKI): 35.25% | %Activity VEGFR1 (VEGFR1 [2]; 4.12E-08 M TKI): 63.70% | %Activity VEGFR1 (VEGFR1 [2]; 4.57E-09 M TKI): 84.35% | %Activity VEGFR1 (VEGFR1 [2]; 5.08E-10 M TKI): 93.32% | Avg % Inhibition FGFR1 (FGFR1; 1uM TKI): 61.61% | Avg % Inhibition FGFR1 (FGFR1; 10uM TKI): 93.09% | Avg % Inhibition TIE2 (TIE2 [3]): 5.03% | Avg % Inhibition TIE2 (TIE2 [3]; listed as sunitinib): 5% | Avg % Inhibition PDGFRb (PDGFRβ; 1uM TKI): 92.22% | Avg % Inhibition PDGFRb (PDGFRβ; 10uM TKI): 97.19% | cumulative sprout length per spheroid (CSL), mean ([4]; 1.00E-05 M TKI): 99 | cumulative sprout length per spheroid (CSL), mean ([4]; 1.00E-06 M TKI): 298 | cumulative sprout length per spheroid (CSL), mean ([4]; 1.00E-07 M TKI): 387 | cumulative sprout length per spheroid (CSL), mean ([4]; 3.00E-06 M TKI): 173 | cumulative sprout length per spheroid (CSL), mean ([4]; 3.00E-07 M TKI): 230 | cumulative sprout length per spheroid (CSL), mean ([4]; 3.00E-08 M TKI): 893 | vessel sprouting (representative spheroid images) ([4]; highest test concentration of 1×10^–5M): zero vessel sprouting | %Activity TIE2 (TIE2 [5]; 1.00E-05 M TKI): 44.88% | %Activity TIE2 (TIE2 [5]; 1.11E-06 M TKI): 93.41% | %Activity TIE2 (TIE2 [5]; 1.37E-08 M TKI): 98.62% | %Activity TIE2 (TIE2 [5]; 1.52E-09 M TKI): 99.65% | %Activity TIE2 (TIE2 [5]; 3.33E-06 M TKI): 74.48% | %Activity TIE2 (TIE2 [5]; 3.70E-07 M TKI): 96.23% | %Activity TIE2 (TIE2 [5]; 4.12E-08 M TKI): 95.60% | %Activity TIE2 (TIE2 [5]; 4.57E-09 M TKI): 97.42% | %Activity TIE2 (TIE2 [5]; 5.08E-10 M TKI): 95.09% | Angiogenesis - Vessel number, Mean ([1]; TKI at 200 x VEGFR2 IC50): 7 | Angiogenesis - Vessel number, individual egg ([1]; TKI at 200 x VEGFR2 IC50, one value per egg): 8.67 and 8.33 and 1.67 and 6.67 and 3.33 | reduction of the number of blood vessels perfusing the sponges vs negative control ([1]; TKI at 200× VEGFR2 IC50 dose): 49.3% | Angiogenesis - Vessel thickness score, Mean ([1]; TKI at VEGFR2 IC50 dose): 1.8 | Angiogenesis - Vessel thickness score, individual egg ([1]; TKI at VEGFR2 IC50 dose): 3 and 0.67 and 2 and 2.33 and 1.33 and 1 | Avg % Inhibition FGFR2 (FGFR2; 1uM TKI): 77.42% | Avg % Inhibition FGFR2 (FGFR2; 10uM TKI): 98.03% | Avg % Inhibition VEGFR3 (VEGFR3 [6]; 1uM TKI): 86.7% | Avg % Inhibition VEGFR3 (VEGFR3 [6]; 10uM TKI): 99.18% | %Activity VEGFR3 (VEGFR3 [7]; 1.00E-05 M TKI): 1.67% | %Activity VEGFR3 (VEGFR3 [7]; 1.11E-06 M TKI): 9.53% | %Activity VEGFR3 (VEGFR3 [7]; 1.23E-07 M TKI): 31.11% | %Activity VEGFR3 (VEGFR3 [7]; 1.37E-08 M TKI): 63.61% | %Activity VEGFR3 (VEGFR3 [7]; 1.52E-09 M TKI): 80.77% | %Activity VEGFR3 (VEGFR3 [7]; 3.33E-06 M TKI): 3.43% | %Activity VEGFR3 (VEGFR3 [7]; 3.70E-07 M TKI): 18.20% | %Activity VEGFR3 (VEGFR3 [7]; 4.12E-08 M TKI): 47.10% | %Activity VEGFR3 (VEGFR3 [7]; 4.57E-09 M TKI): 73.23% | %Activity VEGFR3 (VEGFR3 [7]; 5.08E-10 M TKI): 86.68% | Avg % Inhibition FGFR3 (FGFR3): 79.29% | Avg % Inhibition VEGFR1 (VEGFR1 [8]; 1uM TKI): 77.03% | Avg % Inhibition VEGFR1 (VEGFR1 [8]; 10uM TKI): 93.14%

CCN(CC)CCCC(C)Nc1ccnc2cc(Cl)ccc12 (centres unmarked) [Chloroquine]
Kd [9]: 3.06 ± 0.6 µM
